# Assay results taken from US6699889B2, “Use of glucose uptake enhancer for reducing post-ischemic injury of the heart” (SmithKline Beecham p.l.c., priority 1998, dated 2004).
# Tests used:
# [1] = tested on: isolated working hearts from male Wistar rats; experiment: Isolated working hearts from normal male Wistar rats: baseline ventricular function and recovery after 30 min zero-flow ischaemia and re-perfusion; conditions: normal rat hearts
# Procedure: (§1) A solution of streptozotocin (STZ commercially available) was prepared in citrate buffer (40 mg/ml).
# An acclimatisation period of at least one week was allowed prior to experiment.
# (§2) Perfusion of isolated hearts: Rats were anaesthetized using thiopental sodium (50 mg/kg body weight intraperitoneally). Hearts from normoglycaemic and one-month STZ-induced diabetic rats, were quickly removed and immersed in ice-cold buffer to produce an immediate cessation of contractility. The aorta was dissected free and then mounted onto a cannula attached to a perfusion apparatus. Retrograde perfusion of the heart was started for 10 min by the Langendorff method and then switched to perfusion using the working-heart technique. […] The perfusate was not recirculated. Preload was held at a pressure of 15 cm H2O and afterload, as well as coronary perfusion pressure, were kept constant at 80 cm H2O.
# Stroke volume (ml/beat) was derived by dividing cardiac output by heart rate.
# Induction of global ischaemia and re-perfusion: Total ischaemia was initiated by clamping the left atrium and the aortic perfusion tubes and reducing coronary flow to zero for 30 minutes. The hearts were then re-perfused at 37° C. in working heart mode and recovery of ventricular function was followed for 30 minutes.
# (§3) Statistical significance of differences was determined using Student's t-test.
# [2] = tested on: isolated working hearts from STZ-diabetic rats; experiment: Isolated working hearts from STZ-diabetic male Wistar rats: baseline ventricular function and zero-flow ischaemia and re-perfusion; conditions: diabetic rat hearts
# Procedure: as §1
# The development of diabetes and its persistence were monitored by serial quantitative measurements of glucose in the urine with reagent strips. On the day of the experiment, the severity of diabetes was assessed by measuring glucose concentrations from blood samples collected at the time of heart excision. Only rats with plasma glucose levels exceeding 20 mM were considered diabetic and included in these experiments.
# as §2
# Stroke volume (ml/beat) was derived by dividing cardiac output by heart rate. […]
# as §3
smiles,measurement,setting,value
"CN(CCOc1ccc(CC2SC(=O)NC2=O)cc1)c1ccccn1 (centres unmarked) [Compound (I), 5-[4-[2-(N-methyl-N-(2-pyridyl)amino)ethoxy]benzyl]thiazolidine-2,4-dione]",Protective properties in hearts subjected to zero-flow ischaemia in vitro,[1],protective properties of rapid onset
same,Protective properties in hearts subjected to zero-flow ischaemia in vitro,[2],protective properties of rapid onset
